A word on the IC50: it is the midpoint of a concentration-inhibition curve. By EC50 is commonly meant the midpoint of the concentration-response curve.

Data on 14 compounds can be found in PMC2807854, “Monoketone analogs of curcumin, a new class of Fanconi anemia pathway inhibitors” (Molecular Cancer, 2009).

The subject of experiment [1] is xFANCD2-Ub (FANCD2 monoubiquitylation). The experiment can be described thus: Xenopus cell-free FA pathway assay: DNA substrate-induced xFANCD2 monoubiquitylation (immunoblot, densitometry). Type of experiment: biochemical, Xenopus laevis. The note with it: for IC50: plasmid-activated Xenopus extracts, Fig. 7B, read-out: xFANCD2-Ub inhibition IC50; for activity against xFANCD2-Ub in Xenopus extracts: activated Xenopus extracts, serial dilutions up to 3000 μM. The method, then: (§1) A series of monoketone analogs of curcumin [18] was evaluated in Xenopus egg extracts where DNA substrate-induced xFANCD2-Ub is used as a readout of FA pathway performance. Phosphorylation of MRE11 (MRE11-P), a member of the MRN DNA damage repair pathway was monitored to assess the cross-specificity of the compounds. For each compound, IC50 values were determined from serial dilution experiments and densitometry analysis of immunoblots.
(§2) IC50 values were determined using immunoblots of plasmid-activated extracts treated with a range of concentrations for each compound (0, 10, 25, 60, 150, 400, 1000, 3000 μM). A representative experiment is shown (out of 3 repeats). B) Structure of curcumin and monoketone analogs. […] Activated extracts were treated with 1 mM each compound and phosphorylation of RPA32 and H2AX monitored by immunoblot.
(§3) Preparation of Xenopus laevis low-speed extracts and the FA pathway assay were described previously.
(§4) Fitted curves were determined from experimental data using IgorPro. The concentration of compound that induces 50% inhibition of the measured endpoint (i.e. FANCD2 ubiquitylation, Mre11 phosphorylation and cell survival) was then plotted on the fitted curve.
Background: Immunoblotting shows a protein as a band on a membrane.

A further experiment relates to hFANCD2-Ub in HeLa cells. As to the kind of experiment: hFANCD2 ubiquitylation assay in hydroxyurea-treated HeLa cells (immunoblot, densitometry). Type of experiment: cell-based, human. The note with it: Homo sapiens; HeLa cells co-treated with hydroxyurea; read-out: hFANCD2-Ub inhibition IC50. The method, then: We next determined whether EF24 could inhibit hFANCD2-Ub in human cells. Curcumin was tested in parallel to assess whether activity difference observed in extracts are mirrored in cells. HeLa cells were co-treated with increasing concentrations of compounds and hydroxyurea (HU), a standard method to stimulate hFANCD2-Ub (Fig. 4A, lanes 1-2, 7-8, [30]).
A) Hydroxyurea-induced FANCD2-Ub in HeLa cells is inhibited by EF24 at lower concentrations than curcumin. hFANCD2-Ub was monitored by immunoblot and densitometry analysis to determine IC50. B) Hydroxyurea-induced hFANCD2 foci formation is inhibited by EF24. hFANCD2 foci were detected by immunofluorescence and the percentage of cells with more than 5 foci was determined for each treatment. Histograms represent the average of 3 experiments. Error bars represent standard deviation.
hFANCD2 ubiquitylation assay and immunofluorescence assays in HeLa cells have been described elsewhere.
as §4

The next experiment deals with 309ATM KO cells. The experiment can be described thus: Survival assay (MTS), ATM KO mouse kidney cells. The note with it: for sensitivity of 309ATM KO cells compared to 334ATM WT cells: 72 hrs survival, KO vs WT; for IC50: 309ATM KO cells, 72 hrs, MTS, read-out: cell survival IC50 KO. Type of experiment: cell-based.
Source text: (§5) To test this possibility, we compared the effects of curcumin and EF24 in an ATM KO mouse kidney cell line (309ATM KO) and its isogenic, wild type counterpart (334ATM WT). As expected from ATM deficiency, 309ATM KO cells were more sensitive to ionizing irradiation than 334ATM WT (Additional File 1 - Fig. S3). We next treated these cell lines with various concentrations of EF24 and measured their survival after 72 hrs.
(§6) Figure 6 EF24 but not curcumin or DRB is more toxic to ATM-deficient mouse kidney cells than wild-type cells. A) 309ATM KO and 334ATM WT cells were treated with various concentrations of EF24. Cell viability was measured after 3 days by MTS assay. Each point represents the mean of 3 repeats. Error bars represent standard deviation. B) Similar experiment was performed using curcumin.
(§7) HSC72OT and HSC72OT+A cells were seeded at 5,000 per well in 96-well plates, and treated 24 hrs later with various concentrations of compounds or DMSO (1 μl in 100 μl medium). 309ATM KO and 334ATM WT cells were seeded at 7,000 per well and treated immediately. Cell survival was measured after 3 days using the CellTiter 96 AQueous One Solution Cell Proliferation Assay (Promega) following the recommendations from the manufacturer. All experiments were done in triplicate.
as §4

The next experiment deals with 334ATM WT cells. The experiment can be described thus: Survival assay (MTS), ATM wild-type mouse kidney cells. Type of experiment: cell-based. The note with it: 72 hrs, read-out: cell survival IC50 WT.
Source text: as §5, §6, §7, §4

The test system of experiment [2] is proteasome. Set-up: method as in PMID 16982768. The note with it: cited from earlier work.
For experiment [3], the system named is ubiquitin isopeptidase/deubiquitinase (DUB). Details: method as in PMID 16982768. The note with it: cited from earlier work.
The subject of experiment [4] is proteasome. As to the kind of experiment: Proteasome assay in Xenopus extracts, both activities taken together. Type of experiment: biochemical, Xenopus laevis. The note with it: caspase-like and chymotrypsin-like activities. The text has this:
The proteasome is required for the monoubiquitylation of xFANCD2 in cells. As curcumin has proteasome inhibiton activities, we tested whether EF24 inhibits xFANCD2-Ub by this mechanism. Two proteasome activities (caspase-like and chymotrypsin-like) along with xFANCD2-Ub status were monitored in activated Xenopus extracts treated with various compounds (Fig. 2A).
Proteasome activities and xFANCD2-Ub were monitored using fluorogenic probes and immunoblotting, respectively. IC50 values were determined for each compound using a range of concentrations and represented in histogram graphs. For MG132, numbers above caspase-like and chymotrypsin-like histograms indicate the actual IC50 values. A representative experiment is shown (out of 3 repeats).
Fluorogenic peptides (Proteasome Substrate Pack #PW9905) specific for the chymotrypsin-like and caspase-like activities of the proteasome were incubated in Xenopus extracts treated with serial dilutions of various compounds. Fluorescence emitted by proteasome cleavage of the peptides was monitored using a fluorometer (FluoStar Galaxy, BMG Labtech) with 380 nm and 460 nm excitation and emission filters, respectively. Experiments were repeated at least twice.

Experiment [5] concerns xMRE11-P (MRE11 phosphorylation). As to the kind of experiment: MRE11 phosphorylation in activated Xenopus extracts (immunoblot). Type of experiment: biochemical, Xenopus laevis. The procedure:
as §1, §2, §3, §4

The test system of experiment [6] is IKK (IκB-α stabilization). As to the kind of experiment: IκB-α accumulation in Xenopus extracts as readout of IKK inhibition (immunoblot). Type of experiment: biochemical, Xenopus laevis. The note with it: Xenopus extracts prepared without cycloheximide, Fig. 3A/3B. The method, then: We tested whether EF24 inhibits IKK activity in Xenopus extracts by monitoring the accumulation of the IKK target, IκB-α (Fig. 3A). Because IκB-α phosphorylation by IKK leads to its degradation by the ubiquitin-proteasome pathway, inhibition of IKK results in the accumulation of IκB-α. For this experiment, we used extracts prepared without cycloheximide to allow for de novo translation of IκB-α.
Extracts treated as indicated were analyzed by immunoblot using xFANCD2, IκB-α and tubulin-α antibodies. IκB-α protein level was used as readout for monitoring IKK inhibition. […] Experiment was performed as in (A). The structure of BMS-345541 is shown. The star denotes a non-specific band used as loading control.

The test system of experiment [7] is IKK-2 (IKKβ) vs IKK-1 (IKKα). The note with it: cited from earlier work.

Like-named read-outs stand apart in the source and are kept apart here. Residues, ends and D or L forms follow the SMILES beside them. *: point of attachment. Cbz = O=C(OCc1ccccc1)*

On to `O=C1/C(=C/c2ccc([N+](=O)[O-])cc2)CS(=O)(=O)C/C1=C\c1ccc([N+](=O)[O-])cc1` [4H-TTD, 4H-Thiopyran-4-one, tetrahydro-3,5-bis [(4-nitrophenyl)methylene]-,1,1-dioxide], for which the IC50 was 250 µM in [1], 0.12 µM with hFANCD2-Ub in HeLa cells, 0.18 µM with 309ATM KO cells (Mus musculus) and 0.5 µM in the experiment with 334ATM WT cells (Mus musculus). Moreover, the “overall cell toxicity concentration relative to EF24” value in the experiment with 309ATM KO cells (309ATM KO and 334ATM WT survival assay) is given as “about 10 times”. The “sensitivity of 309ATM KO cells compared to 334ATM WT cells” value in the experiment with 309ATM KO cells was 3 fold. Further, in the experiment on proteasome [2], the proteasome activity result is given as “did not inhibit proteasome activity”. Moreover, the “ubiquitin isopeptidase/deubiquitinase (DUB) inhibition” value in [3] is recorded as “exhibited ubiquitin isopeptidase/deubiquitinase (DUB) inhibition activity”.

`CC(C)(C)OC(=O)N1C/C(=C\c2ccccc2F)C(=O)/C(=C/c2ccccc2F)C1` [0616-104]: the “activity against xFANCD2-Ub in Xenopus extracts” value (“activity against xFANCD2-Ub” below) in experiment [1] was “non-detectable levels”.

As for `NC1C/C(=C\c2ccccc2F)C(=O)/C(=C/c2ccccc2F)C1` (stereo not shown) [0810-117], in experiment [1], the “activity against xFANCD2-Ub” value is “non-detectable levels”. Also, in the experiment on proteasome [4], the “proteasome inhibition” value is “weak inhibitory activities against both the proteasome and xFANCD2-Ub”.

Take `O=C1/C(=C/c2ccccn2)CSC/C1=C\c1ccccn1` [0821-120A]: in experiment [1], the “activity against xFANCD2-Ub” value was “drops the activity only slightly”.

`O=C1/C(=C/c2ccccn2)COC/C1=C\c1ccccn1` [0822-3]: the “activity against xFANCD2-Ub” value in experiment [1] was “only weakly active”.

Turning to `O=C1/C(=C/c2ccccc2F)COC/C1=C\c1ccccc1F` [AS153-2], the “activity against xFANCD2-Ub” value in experiment [1] is listed as “undetectable levels”.

Turning to `O=C1/C(=C/c2cccc(F)c2)CNC/C1=C\c1cccc(F)c1` [AS153-4], the “activity against xFANCD2-Ub” value in experiment [1] is given as “strong activity against xFANCD2-Ub”. Also, in the experiment on proteasome [4], the “fold less active than curcumin for proteasome inhibition” value amounted to 20 fold.

For the compound `O=C1/C(=C/c2ccc(F)cc2)CNC/C1=C\c1ccc(F)cc1` [AS153-5], the “activity against xFANCD2-Ub” value in experiment [1] is listed as “much more potent than the corresponding thio-pyran analog”.

Consider `Cc1ccc2nc(NCCN)c3ncc(C)n3c2c1` [BMS-345541, reference compound], for which the EC50 in [1] (Xenopus extracts prepared without cycloheximide, Fig. 3A/3B, read-out: xFANCD2-Ub inhibition EC50) worked out at 970 µM; in experiment [6] it was 280 µM. For the same compound, the “effect on xMRE11 phosphorylation” value in [5] was “MRE11 phosphorylation was inhibited”. Further, the “fold more active on IKK-2 (IKKβ) than on IKK-1 (IKKα)” value in experiment [7] is recorded as 10 fold.

`OC[C@H]1O[C@@H](n2cnc3cc(Cl)c(Cl)cc32)[C@H](O)[C@@H]1O` [DRB, reference compound]: the “activity against xFANCD2-Ub” value in experiment [1] was “no effect on the FA pathway in Xenopus extracts”. For the same compound, the figures for the IC50 with 309ATM KO cells and with 334ATM WT cells were 56 µM and 60 µM, respectively.

Turning to `O=C1/C(=C/c2ccccn2)CNC/C1=C\c1ccccn1` [EF31], in experiment [1], the “activity against xFANCD2-Ub” value is on record as “strong activity against xFANCD2-Ub”. In the experiment with proteasome [4], the “fold less active than curcumin for proteasome inhibition” value is listed as 20 fold.

As for `CC(C)C[C@@H](C=O)NC(=O)[C@H](CC(C)C)NC(=O)[C@H](CC(C)C)NC(=O)OCc1ccccc1` [MG132, reference compound] (Cbz-Leu-Leu-Leu-aldehyde), the “activity against xFANCD2-Ub” value in experiment [1] was “only a weak activity on xFANCD2-Ub”. Moreover, the “proteasome inhibition” value in the experiment on proteasome [4] is given as “efficiently inhibited both proteasome activities”.

For `COc1cc(/C=C/C(=O)CC(=O)/C=C/c2ccc(O)c(OC)c2)ccc1O` [curcumin], the “activity against xFANCD2-Ub” value in experiment [1] was “only a weak activity on xFANCD2-Ub”. Besides, the IC50 in [1] is over 2000 µM; in the experiment with hFANCD2-Ub in HeLa cells, 15 µM; in the experiment with 309ATM KO cells (Mus musculus), 23 µM; in the experiment on 334ATM WT cells (Mus musculus), 17 µM. The “proteasome inhibition” value in the experiment with proteasome [4] is “efficiently inhibited both proteasome activities”. The “sensitivity of 309ATM KO cells compared to 334ATM WT cells” value with 309ATM KO cells was “slightly more resistant”.

Consider `CO[C@H]([C@H](O)CC(=O)[C@@H](C)[C@@H](O)CC[C@@H](C)[C@@H]1O[C@]2(CC[C@@H](C)[C@H](CC[C@H](C)C(C)=O)O2)CC[C@@H]1C)[C@H](OC(=O)C[C@@H](O)C1=C(C)C(=O)OC1=O)C(C)C` [tautomycin, reference compound], for which the “activity against xFANCD2-Ub” value in [1] is recorded as “no detectable effect on xFANCD2-Ub”. Moreover, the “effect on xMRE11 phosphorylation” value in experiment [5] is given as “accumulation of xMRE11-P”.
